From the supplement of paper PMC10307832 come the findings set out here.

Holding throughout (test): relative viability (nuclei count vs DMSO), 5 days (fraction); higher = more cells survive
Compound in assay [1]: CN(C)C/C=C/C(=O)Nc1cc2c(Nc3ccc(F)c(Cl)c3)ncnc2cc1O[C@H]1CCOC1 [Afatinib] + O=C(CCCCCCC(=O)Nc1ccccc1)NO [Vorinostat] (partner 1 µM)
In a few lines: (§1)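 Lung cancer cell lines in 1536-well plates were dosed by pin tool the day after seeding, either with one drug alone or with a fixed anchor-drug dose plus five library-drug doses (not always all listed) in √10 steps. After 5 days, cells were fixed and their nuclei stained in one step (final 0.05% Triton X-100, 1% formaldehyde, 1 ug/ml Hoechst), then counted on 4× images. Relative viability is the nuclei count in treated wells divided by that in vehicle wells. Values are medians of duplicate plates.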

Compound in assay [2]: CN(C)C/C=C/C(=O)Nc1cc2c(Nc3ccc(F)c(Cl)c3)ncnc2cc1O[C@H]1CCOC1 [Afatinib] + CC(=O)c1c(C)c2cnc(Nc3ccc(N4CCNCC4)cn3)nc2n(C2CCCC2)c1=O [Palbociclib] (partner 0.5 µM)
In a few lines:
as §1

Compound in assay [3]: CN(C)C/C=C/C(=O)Nc1cc2c(Nc3ccc(F)c(Cl)c3)ncnc2cc1O[C@H]1CCOC1 [Afatinib] + NC(=O)Nc1cc(-c2cccc(F)c2)sc1C(=O)N[C@H]1CCCNC1 [AZD7762] (partner 0.2 µM)
The method, boiled down:
as §1

Compound in assay [4]: CN(C)C/C=C/C(=O)Nc1cc2c(Nc3ccc(F)c(Cl)c3)ncnc2cc1O[C@H]1CCOC1 [Afatinib] + C[C@@H](Oc1cc(-c2cnn(C3CCNCC3)c2)cnc1N)c1c(Cl)ccc(F)c1Cl [Crizotinib] (partner 1 µM)
The method, boiled down:
as §1

Regarding EPLC-272H, the relative viability worked out at 0.402 in assay [1] (first compound 0.005 µM); 0.387 in assay [1] (first compound 0.01581 µM); 0.347 in assay [1] (first compound 0.05 µM); 0.448 in assay [1] (first compound 0.1581 µM); 0.273 in assay [1] (first compound 0.5 µM); 0.31 in assay [2] (first compound 0.005 µM). Moreover, the relative viability in assay [2] (first compound 0.01581 µM) amounted to 0.294; in assay [2] (first compound 0.05 µM), 0.283; in assay [2] (first compound 0.1581 µM), 0.284; in assay [2] (first compound 0.5 µM), 0.292; in assay [3] (first compound 0.005 µM), 0.139; in assay [3] (first compound 0.01581 µM) it was 0.229. Further, the relative viability in assay [3] (first compound 0.05 µM) is 0.175; in assay [3] (first compound 0.1581 µM) it was 0.187; in assay [3] (first compound 0.5 µM), 0.168; in assay [4] (first compound 0.005 µM) it was 0.698; in assay [4] (first compound 0.01581 µM), 0.72; in assay [4] (first compound 0.05 µM) it was 0.842. Also, the relative viability in assay [4] (first compound 0.1581 µM) was found to be 0.739; in assay [4] (first compound 0.5 µM), 0.575.

In the case of H3255, the relative viability in assay [1] (first compound 0.005 µM) stood at 0.277; in assay [1] (first compound 0.01581 µM), 0.207; in assay [1] (first compound 0.05 µM), 0.229; in assay [1] (first compound 0.1581 µM) it was 0.185; in assay [1] (first compound 0.5 µM), 0.952; in assay [2] (first compound 0.005 µM), 0.267. The relative viability in assay [2] (first compound 0.01581 µM) is 0.269; in assay [2] (first compound 0.05 µM) it was 0.289; in assay [2] (first compound 0.1581 µM), 0.26; in assay [2] (first compound 0.5 µM), 0.258; in assay [3] (first compound 0.005 µM) it was 0.405; in assay [3] (first compound 0.01581 µM), 0.284. For the same cell line, the relative viability in assay [3] (first compound 0.05 µM) was determined as 0.278; in assay [3] (first compound 0.1581 µM), 0.259; in assay [3] (first compound 0.5 µM), 0.287; in assay [4] (first compound 0.005 µM), 0.225; in assay [4] (first compound 0.01581 µM), 0.191; in assay [4] (first compound 0.05 µM), 0.265. Moreover, the relative viability came to 0.166 in assay [4] (first compound 0.1581 µM) and 0.226 in assay [4] (first compound 0.5 µM).

Turning to HARA, the relative viability in assay [1] (first compound 0.005 µM) came out at 0.586; in assay [1] (first compound 0.01581 µM) it was 0.543; in assay [1] (first compound 0.1581 µM), 0.458; in assay [1] (first compound 0.5 µM), 0.58; in assay [2] (first compound 0.005 µM) it was 0.188; in assay [2] (first compound 0.01581 µM), 0.242. The relative viability was found to be 0.204 in assay [2] (first compound 0.05 µM); 0.189 in assay [2] (first compound 0.1581 µM); 0.197 in assay [2] (first compound 0.5 µM); 0.225 in assay [3] (first compound 0.05 µM); 0.217 in assay [3] (first compound 0.1581 µM); 0.287 in assay [3] (first compound 0.5 µM). The relative viability turned out to be 0.884 in assay [4] (first compound 0.005 µM); 1.04 in assay [4] (first compound 0.01581 µM); 0.763 in assay [4] (first compound 0.05 µM); 0.494 in assay [4] (first compound 0.1581 µM); 0.783 in assay [4] (first compound 0.5 µM).

With HCC-15, the relative viability was 0.904 in assay [1] (first compound 0.005 µM); 0.92 in assay [1] (first compound 0.01581 µM); 0.816 in assay [1] (first compound 0.05 µM); 0.785 in assay [1] (first compound 0.1581 µM); 0.887 in assay [1] (first compound 0.5 µM); 0.743 in assay [2] (first compound 0.005 µM). In addition, the relative viability in assay [2] (first compound 0.01581 µM) came out at 0.753; in assay [2] (first compound 0.05 µM), 0.702; in assay [2] (first compound 0.1581 µM), 0.755; in assay [2] (first compound 0.5 µM), 0.746; in assay [3] (first compound 0.005 µM), 1.14; in assay [3] (first compound 0.01581 µM) it was 1.39. Besides, the relative viability is 1.32 in assay [3] (first compound 0.05 µM); 1.19 in assay [3] (first compound 0.1581 µM); 1.05 in assay [3] (first compound 0.5 µM); 0.842 in assay [4] (first compound 0.005 µM); 0.904 in assay [4] (first compound 0.01581 µM); 0.804 in assay [4] (first compound 0.05 µM). Besides, the values for the relative viability in assay [4] (first compound 0.1581 µM) and in assay [4] (first compound 0.5 µM) were 0.837 and 0.866, respectively.
